Reference: patent US9598459B2, “Pharmaceutical compositions and methods” (priority 2015, dated 2017)
In brackets after ≈: the same amount, converted by molar mass. Several values for one entry are separate records, joined by “and”; a condition that tells them apart may be missing. Equal entries are not always repeated. Structures can show the parent of a compound that is named as a salt. Where two headings read alike, the source gives them in different places.

Legend:
[1] = system: Norwalk virus (replicon) GT1; assay: Norwalk virus replicon (GT1) in HG23, RNA hybridization; assay type: cell-based, Norwalk virus (human norovirus)
RAW267.4 = assay: Toxicity in RAW267.4 cells (neutral red); settings: Neutral Red (Toxicity), Example 11
MNV MNV-1 = assay: Murine norovirus (MNV-1) antiviral screen in RAW267.4; assay type: cell-based; settings: Neutral Red (Cytopathology), MNV-1, RAW267.4, Example 11
in vitro [2] = settings: human, CC50
Zika virus MR766 = assay: Zika virus antiviral screen in HuH-7; assay type: cell-based; settings: for EC50: Zika virus, read-out: EC50
Dengue 2 = assay: Dengue virus antiviral screen in HUH7; assay type: cell-based, dengue virus type 2; settings: Dengue virus, Huh-7, New Guinea C, read-out: EC50
[3] = Phosphatidylcholine binding (thin-layer chromatographic run); settings: words
in vitro [4] = settings: human
HIV-1 strain LAI = assay: HIV-1 replication reverse transcriptase (RT) assay in PBMC; assay type: cell-based, human immunodeficiency virus type 1; settings: for EC90: Human immunodeficiency virus 1, read-out: Anti-HIV-1LAI activity EC90
Vero = settings: African green monkey
in vitro [5] = settings: African green monkey
CCRF-CEM = assay: Cytotoxicity on CCRF-CEM; settings: read-out: Cytotoxicity CC50, CCRF-CEM
PBMC = settings: human
[6] = system: Herpes simplex virus type 1 E-377; assay: Herpes simplex virus type 1 antiviral screen in primary HFF-1 (CellTiter-Glo); assay type: cell-based; settings: Human alphaherpesvirus 1; E-377, Primary HFF-1, CellTiter-Glo
[7] = Cytotoxicity on primary human foreskin fibroblasts; settings: human
[8] = system: Vaccinia virus Copenhagen; assay: microbe, parasite or virus in culture; assay type: cell-based; settings: Orthopoxvirus vaccinia, HFF-1
[9] = Cytotoxicity on RD host cells; assay type: cell-based; settings: human, RD cells, Enterovirus D68 screen, read-out: CC50
[10] = system: Enterovirus D68 US/KY/14-18953; assay: Enterovirus D68 antiviral screen in RD; assay type: cell-based; settings: Enterovirus D, US/KY/14-18953, RD, read-out: EC50
[11] = system: Hepatitis B virus (HBV) ayw; assay: Hepatitis B virus replication in HepAD38 (32P dot blot); assay type: cell-based; settings: Hepatitis B virus
[12] = system: Hepatitis C virus (replicon) clone B (genotype 1a); assay: HCV genotype 1a HuH-7 clone B subgenomic replicon RNA replication; assay type: cell-based, human hepatitis C virus; settings: Fixed: 10 μM, Clone B genotype 1a, HuH-7, Replicon
[13] = system: cellular ribosomal RNA (rRNA) synthesis; assay: Cellular ribosomal RNA synthesis in HCV replicon cells (TaqMan RT-qPCR); assay type: cell-based; settings: Fixed: 10 μM, Clone B genotype 1a, HuH-7, Replicon
Rift Valley fever MP-12 = assay: microbe, parasite or virus in culture; assay type: cell-based, Rift Valley fever virus
in vitro [14] = settings: African green monkey; remark: listed apart in the source
[15] = system: Respiratory syncytial type A A2 (VR-1540); assay: Respiratory syncytial virus type A antiviral screen in MA-104; assay type: cell-based; settings: human respiratory syncytial virus, MA104, A2 (VR-1540), read-out: EC50
Tacaribe TRVL11573 = assay: microbe, parasite or virus in culture; assay type: cell-based, Tacaribe virus
[16] = system: swine-origin pandemic influenza A (H1N1) virus; assay: microbe, parasite or virus in culture; assay type: cell-based
Cytotoxicity on CCRF-CEM = settings: human, CCRF-CEM cells (T-lymphoblastic acute T cell leukemia), Cytotoxicity CC50, CCRF-CEM
[17] = target: cytosolic progesterone receptors (PR) (Homo sapiens, UniProt P06401); settings: Peeters et al., 2008; cited from earlier work
cytosolic progesterone receptors (PR), sequence (P06401 whole entry): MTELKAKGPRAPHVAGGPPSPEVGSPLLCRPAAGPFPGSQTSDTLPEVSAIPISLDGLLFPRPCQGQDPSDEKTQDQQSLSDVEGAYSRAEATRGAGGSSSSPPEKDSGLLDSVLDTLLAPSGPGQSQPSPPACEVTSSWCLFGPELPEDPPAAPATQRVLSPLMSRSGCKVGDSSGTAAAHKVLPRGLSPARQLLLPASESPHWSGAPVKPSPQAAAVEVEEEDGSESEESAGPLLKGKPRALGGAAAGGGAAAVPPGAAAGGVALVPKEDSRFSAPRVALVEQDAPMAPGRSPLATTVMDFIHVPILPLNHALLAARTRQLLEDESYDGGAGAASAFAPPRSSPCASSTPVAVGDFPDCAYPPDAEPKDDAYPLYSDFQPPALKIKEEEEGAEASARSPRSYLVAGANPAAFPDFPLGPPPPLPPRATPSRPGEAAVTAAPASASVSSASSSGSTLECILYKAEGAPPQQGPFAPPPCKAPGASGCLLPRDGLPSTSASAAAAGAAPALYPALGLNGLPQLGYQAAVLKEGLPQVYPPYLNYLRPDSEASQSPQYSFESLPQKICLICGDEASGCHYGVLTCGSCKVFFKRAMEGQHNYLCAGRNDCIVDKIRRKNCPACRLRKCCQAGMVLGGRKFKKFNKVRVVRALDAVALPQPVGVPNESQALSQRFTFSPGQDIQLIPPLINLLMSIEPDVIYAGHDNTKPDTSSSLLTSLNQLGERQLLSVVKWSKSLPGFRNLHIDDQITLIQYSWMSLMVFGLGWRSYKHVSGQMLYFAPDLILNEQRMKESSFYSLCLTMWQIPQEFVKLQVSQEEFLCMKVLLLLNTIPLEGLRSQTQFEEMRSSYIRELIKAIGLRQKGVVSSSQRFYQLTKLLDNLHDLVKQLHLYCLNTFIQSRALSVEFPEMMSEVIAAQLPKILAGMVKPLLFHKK

[18] = rats, twice daily 1-2 mg kg−1 po; cited from earlier work
[19] = cited from earlier work
cytosolic GRs = target: T1, cytosolic GRs (Homo sapiens, UniProt P04150); settings: Peeters et al., 2008; cited from earlier work
T1 sequence (P04150 1-777): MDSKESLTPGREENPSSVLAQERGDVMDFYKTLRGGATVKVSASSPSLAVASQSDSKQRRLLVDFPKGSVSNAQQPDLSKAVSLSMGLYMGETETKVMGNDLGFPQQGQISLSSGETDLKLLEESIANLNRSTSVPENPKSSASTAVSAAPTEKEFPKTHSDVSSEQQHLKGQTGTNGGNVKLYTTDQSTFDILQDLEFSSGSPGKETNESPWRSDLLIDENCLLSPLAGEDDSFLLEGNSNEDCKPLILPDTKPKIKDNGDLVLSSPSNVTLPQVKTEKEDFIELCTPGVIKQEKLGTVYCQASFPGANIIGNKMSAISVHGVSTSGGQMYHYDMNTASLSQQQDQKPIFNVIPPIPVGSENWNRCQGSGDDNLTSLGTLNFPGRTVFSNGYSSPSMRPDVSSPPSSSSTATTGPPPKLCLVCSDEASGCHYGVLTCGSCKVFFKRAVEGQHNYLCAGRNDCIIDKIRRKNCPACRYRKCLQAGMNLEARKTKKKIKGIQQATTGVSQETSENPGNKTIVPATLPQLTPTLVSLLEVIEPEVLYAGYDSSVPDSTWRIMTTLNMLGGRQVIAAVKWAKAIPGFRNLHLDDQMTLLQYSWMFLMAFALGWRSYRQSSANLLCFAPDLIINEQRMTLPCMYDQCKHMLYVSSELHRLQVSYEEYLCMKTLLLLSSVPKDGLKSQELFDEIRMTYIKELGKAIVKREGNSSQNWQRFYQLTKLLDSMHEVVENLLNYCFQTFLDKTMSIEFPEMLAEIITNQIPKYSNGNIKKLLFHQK

[20] = system: Enterovirus 71 Tainan/4643/98; assay: microbe, parasite or virus in culture; assay type: cell-based; settings: Enterovirus A, Vero 76
Vero 76 = settings: African green monkey
Poliovirus type 3 WM-3 = assay: microbe, parasite or virus in culture; assay type: cell-based; settings: Enterovirus C, Vero 76

CC#CC1(O)CCC2C3CCC4=CC(=NNC(=S)Nc5ccccc5)CCC4=C3C(c3ccc4c(c3)OCO4)CC21C.CC#CC1(O)CCC2C3CCC4=CC(=O)CCC4=C3C(c3ccc4c(c3)OCO4)CC21C (mixture of isomers) [PT156, 1/17(11β,17β)-17-Hydroxy-11-[3,4-(methylenedioxy)phenyl]-17-(1-propyn-1-yl)estra-4,9-dien-3-one (ORG34517)×(2EZ)-2-{(11β,17β)-17-hydroxy-11-[3,4-(methylenedioxy)phenyl]-17-(1-propyn-1-yl)estra-4,9-dien-3-ylidene}-N-phenylhydrazinecarbothioamide [74.1% (E), 25.9% (Z)] 11/17hydrate]
EC90 ([1]; RNA Hybridization (Replicon), NV GT1, HG23, Example 10): > 100 µM | EC50 ([1]; RNA Hybridization (Replicon), NV GT1, HG23, Example 10, unit from Conc. Range): > 100 µM | CC50 (RAW267.4): 33 µM | EC90 (MNV MNV-1): 290 nM | EC50 (MNV MNV-1; unit from Conc. Range): 91 nM | CC50 (HG23): > 100 µM

O=c1cnn([C@@H]2O[C@H](CO)[C@@H](O)[C@H]2O)c(=O)[nH]1 [6-azauridine, reference compound]
CC50 (in vitro [2]): > 408 µM | EC90 (Zika virus MR766; Huh-7, Visual (Virus yield reduction), Zika virus MR766, HUH7, Example 9, unit from Conc. Range, read-out: EC90): 0.89 µg/mL (≈ 3.63 µM) | EC50 (Zika virus MR766; Huh-7, MR766, HuH-7, Neutral red): 11 µg/mL | EC50 (Zika virus MR766; Huh-7, MR766, HuH-7, Visual): 3.2 µg/mL | EC50 (Zika virus MR766; Huh-7, Neutral Red (Cytopathic effect/Toxicity), Zika virus MR766, HUH7, Example 9): 4.1 µg/mL | EC50 (Zika virus MR766; Huh-7, Zika virus MR766, HuH-7, Table 10): 13.1 µM | EC50 (Dengue 2; HuH-7, Neutral red): 4.6 µg/mL (≈ 18.8 µM) | EC50 (Dengue 2; HuH-7, Visual): 2.8 µg/mL (≈ 11.4 µM)

CC#C[C@]1(O)CC[C@H]2[C@@H]3CCC4=C/C(=N/NC(N)=S)CCC4=C3[C@@H](c3ccc4c(c3)OCO4)C[C@@]21C [(E)-ORG34517 thiosemicarbazone]
binding to PC [3]: Weak (stereospecific!) binding to PC

Cc1cn([C@H]2C[C@H](N=[N+]=[N-])[C@@H](CO)O2)c(=O)[nH]c1=O [AZT, 3′-azido-3′-deoxythymidine, reference compound]
CC50 (in vitro [4]): > 100 µM | EC50 (HIV-1 strain LAI; Human immunodeficiency virus 1, PBMC, LAI, PBMC, RT 3H-dTTP, read-out: EC50): 0.79 nM | EC90 (HIV-1 strain LAI; in PBMC): 29.9 nM | EC50 (HIV-1 strain LAI; in PBMC, listed as zidovudine (AZT), read-out: Anti-HIV-1LAI activity EC50): 4.4 ± 3.9 nM | CC50 (Vero): 39.5 µM | CC50 (in vitro [5]; Cytotoxicity CC50): 56 µM | CC50 (CCRF-CEM): 14.3 µM | CC50 (CCRF-CEM; listed as zidovudine (AZT)): 56.1 µM | CC50 (PBMC): > 100 µM

Nc1nc2c(ncn2COCCO)c(=O)[nH]1 [Aciclovir]
EC50 [6]: 3.85 µM | CC50 ([7]; primary human foreskin fibroblasts (HFF-1), CC50, Herpes simplex virus type 1 screen, Primary HFF-1, CellTiter-Glo): > 150 µM

Nc1ccn(C[C@@H](CO)OCP(=O)(O)O)c(=O)n1 [Cidofovir]
EC50 [8]: 7.34 µM | CC50 ([7]; primary HFF-1 human foreskin fibroblasts, CC50): > 150 µM

CC(C)S(=O)(=O)n1c(N)nc2ccc(/C(=N/O)c3ccccc3)cc21 [Enviroxime]
CC50 ([9]; Neutral red): 25 µg/mL (≈ 69.7 µM) | CC50 ([9]; Visual): 32 µg/mL (≈ 89.3 µM) | EC50 ([10]; Neutral red): 0.1 µg/mL (≈ 0.279 µM) | EC50 ([10]; Visual): < 0.1 µg/mL

Nc1ccn([C@@H]2CS[C@H](CO)O2)c(=O)n1 [Lamivudine]
EC50 [11]: 30 nM

C[C@@]1(O)[C@H](O)[C@@H](CO)O[C@H]1n1ccc(N)nc1=O [RS-446]
EC50 ([1]; Norovirus/1968/US, HG23, Replicon): 6.9 µM | % Inhib replication [12]: 98.08% | % Inhib rRNA(tox) [13]: 31.09%

NC(=O)c1ncn([C@@H]2O[C@H](CO)[C@@H](O)[C@H]2O)n1 [Ribavirin]
EC50 (Rift Valley fever MP-12): 8.3 µg/mL (≈ 34 µM) | EC50 (Rift Valley fever MP-12; Rift Valley fever virus, Vero 76): 9.7 µg/mL (≈ 39.7 µM) | CC50 (in vitro [14]): > 1000 µg/mL | EC50 ([15]; MA-104, Neutral red): 6.8 µg/mL (≈ 27.8 µM) | EC50 ([15]; MA-104, Visual): 6.7 µg/mL (≈ 27.4 µM) | CC50 (in vitro [5]; CC50): > 1000 µg/mL | EC50 (Tacaribe TRVL11573): 7 µg/mL (≈ 28.7 µM) | EC50 (Tacaribe TRVL11573; Mammarenavirus tacaribeense, Vero): 7.9 µg/mL (≈ 32.3 µM) | EC50 [16]: 13 µg/mL (≈ 53.2 µM) | EC50 ([16]; Influenza A virus, H1N1, MDCK): 14 µg/mL (≈ 57.3 µM)

Nc1ccn([C@@H]2O[C@H](CO)[C@@H](O)[C@H]2O)c(=O)[n+]1[C-2][n+]1c(N)ccn([C@@H]2O[C@H](CO)[C@@H](O)[C@H]2O)c1=O [TCY-1, Bis(cytidin-3-ium-3-yl)methanediide monohydrochloride×1.25H2O]
CC50 (in vitro [4]): > 100 µM | EC50 (HIV-1 strain LAI; Human immunodeficiency virus 1, PBMC, in PBMC, read-out: Anti-HIV-1LAI activity EC50): 290 nM | EC90 (HIV-1 strain LAI; in PBMC): 1000 nM | CC50 (in vitro [5]; Cytotoxicity CC50): > 100 µM | CC50 (Cytotoxicity on CCRF-CEM): > 100 µM

CC#C[C@]1(O)CC[C@H]2[C@@H]3CCC4=CC(=O)CCC4=C3[C@@H](c3ccc(N(C)C)cc3)C[C@@]21C [mifepristone, reference compound]
value for the cytosolic progesterone receptors (PR) [17]: 36% | embryos lost [18]: ~100% | responding ([19]; glucose intolerant group): 60% | responding ([19]; hypertensive group): 43% | bound to cytosolic GRs, value (cytosolic GRs): 193%

CCOC(=O)c1ccc(OCCC2CCN(c3ccc(C)nn3)CC2)cc1 [pirodavir, reference compound]
CC50 (in vitro [14]): > 27 µM and > 10 µg/mL | EC50 [20]: 97 nM | EC90 [20]: 0.23 µg/mL (≈ 0.623 µM) | CC50 (Vero 76): 7.8 µg/mL (≈ 21.1 µM) | EC50 (Poliovirus type 3 WM-3): 970 nM | EC90 (Poliovirus type 3 WM-3): 0.14 µg/mL (≈ 0.379 µM)
